Values of other authors as cited in patent US20210059976A1, “ORAL PHARMACEUTICAL FORMULATION COMPRISING CANNABINOIDS AND POLOXAMER” (GW Research Limited, priority 2018, published 2021).
Read-outs that look alike come from different tables or passages of the source.

Columns and labels:
[1] = system: acute experimental models of generalized seizure
[2] = 20 mg oral administration, man

SMILES | Oral bioavailability | efficacy in acute experimental models of generalized seizure ([1]; 100 mg/kg, but not 1 or 10 mg/kg) | somnolence [2] | efficacy in acute experimental models of generalized seizure ([1]; between 1.25 and 10 mg/kg)
C=C(C)[C@@H]1CCC(C)=C[C@H]1c1c(O)cc(CCCCC)cc1O [CBD, cannabidiol] | low and unpredictable | efficacious |  | 
CCCCCc1cc(O)c2c(c1)OC(C)(C)[C@@H]1CCC(C)=C[C@@H]21 [THC, tetrahydrocannabinol] |  |  | induces somnolence | efficacious
